# Experiments:
# [1] = tested on: Saccharomyces cerevisiae; test: Antifungal activity against Beer yeast after 24 hrs by two fold serial dilution based spectrophotometric analysis; format: functional
# [2] = tested on: Staphylococcus aureus; test: Antibacterial activity against methicillin-resistant Staphylococcus aureus N315 after 24 hrs by micro broth dilution method; format: functional; settings: N315, 24 h
# [3] = tested on: Escherichia coli; test: Antibacterial activity against Escherichia coli DH52 after 24 hrs by micro broth dilution method; format: functional; settings: DH52, 24 h
# [4] = tested on: Micrococcus luteus; test: Antibacterial activity against Micrococcus luteus ATCC 4698 after 24 hrs by micro broth dilution method; format: functional; settings: NCTC 2665, 24 h
# [5] = tested on: Bacillus; test: Antibacterial activity against Bacillus proteus ATCC 13315 after 24 hrs by micro broth dilution method; format: functional; settings: ATCC 13315, 24 h
# [6] = tested on: Escherichia coli; test: Antibacterial activity against Escherichia coli JM109 after 24 hrs by micro broth dilution method; format: functional; settings: JM109, 24 h
# [7] = tested on: Pichia norvegensis; test: Antifungal activity against Candida mycoderma after 24 hrs by two fold serial dilution based spectrophotometric analysis; format: functional
# [8] = tested on: Bacillus subtilis; test: Antibacterial activity against Bacillus subtilis after 24 hrs by micro broth dilution method; format: functional
# [9] = tested on: Salmonella typhi; test: Antibacterial activity against Bacillus typhi after 24 hrs by micro broth dilution method; format: functional, Salmonella enterica subsp. enterica serovar Typhi; settings: Salmonella enterica
# [10] = tested on: Staphylococcus aureus; test: Antibacterial activity against Staphylococcus aureus ATCC 25923 after 24 hrs by micro broth dilution method; format: functional; settings: ATCC 25923, 24 h
# [11] = tested on: Cyberlindnera jadinii; test: Antifungal activity against Candida utilis after 24 hrs by two fold serial dilution based spectrophotometric analysis; format: functional; settings: Williopsis jadinii
# [12] = tested on: Shigella dysenteriae; test: Antibacterial activity against Shigella dysenteriae after 24 hrs by micro broth dilution method; format: functional
# [13] = tested on: Aspergillus flavus; test: Antifungal activity against Aspergillus flavus after 24 hrs by two fold serial dilution based spectrophotometric analysis; format: functional
# [14] = tested on: Candida albicans; test: Antifungal activity against Candida albicans after 24 hrs by two fold serial dilution based spectrophotometric analysis; format: functional
# [15] = tested on: Pseudomonas aeruginosa; test: Antibacterial activity against Pseudomonas aeruginosa after 24 hrs by micro broth dilution method; format: functional
SMILES,MIC [1] [µg/mL],MIC [2] [µg/mL],MIC [3] [µg/mL],MIC [4] [µg/mL],MIC [5] [µg/mL],MIC [6] [µg/mL],MIC [7] [µg/mL],MIC [8] [µg/mL],MIC [9] [µg/mL],MIC [10] [µg/mL],MIC [11] [µg/mL],MIC [12] [µg/mL],MIC [13] [µg/mL],MIC [14] [µg/mL],MIC [15] [µg/mL]
CCOc1ccc2c(c1)sc1nc(-c3ccccc3)c(COCCCCCn3cncn3)n12,> 512,> 512,> 512,> 512,> 512,128,256,> 512,> 512,> 512,256,256,> 512,> 512,> 512
Cc1ncc([N+](=O)[O-])n1CCCCCCCCCCOCc1c(-c2ccccc2)nc2sc3ccccc3n12,256,16,16,256,16,8,64,16,64,16,128,32,16,8,16
BrCCCCCOCc1c(-c2ccccc2)nc2sc3ccccc3n12,16,16,16,256,16,16,64,4,128,32,64,16,16,4,16
O=[N+]([O-])c1cn(CCCCCOCc2c(-c3ccccc3)nc3sc4ccccc4n23)cn1,32,8,128,256,64,128,16,128,128,32,> 512,128,64,16,512
CCOc1ccc2c(c1)sc1nc(-c3ccccc3)c(COCCCCCCCCCCn3cncn3)n12,128,64,32,64,64,64,> 512,32,128,8,> 512,64,> 512,> 512,8
CCOc1ccc2c(c1)sc1nc(-c3ccccc3)c(COCCCn3cnc([N+](=O)[O-])c3)n12,> 512,512,512,256,512,256,32,256,256,128,128,256,32,16,512

# Reference: ChEMBL document CHEMBL4118281, “Azoalkyl ether imidazo[2,1-b]benzothiazoles as potentially antimicrobial agents with novel structural skeleton” (2018)
